“And” between values parts separate entries of the source, which are not always exact repeats. Equal values may be shown once. Read-outs that look alike come from different tables or passages of the source.
Assays:
[1] = Concentration of compound 1 in plasma, striatum and cortex by HPLC-MS (intact and MCAO rats); format: in vivo; details: for concentration at 60 min: rat
Experimental: The calculated data are consistent with the experimental data in intact animals. The concentration of compound 1 was determined in the striatum and frontal cortex by HPLC MS. Sixty minutes after the intravenous administration of compound 1, we anesthetized the rats with isoflurane. Afterward, we drained the blood from the heart, opened the chest, dissected the heart muscle, incised the left atrial appendage, and inserted an 18G needle into the right atrium. The pulmonary circulation was washed with 350 mL of 0.9% NaCl containing 1.0 mL of heparin. After the washing procedure, the rat was decapitated and the brain was removed and dissected. We determined the concentrations of compound 1 using an HPLC MS system. The concentration of compound 1 in plasma and the striatum differed by 650 times, and the concentration in plasma and the cortex differed by 630 times (Table 6).
Brain. A brain sample weighing 50 mg (± 2 mg) was placed in 2 mL tubes and 10 μL of an aqueous solution of an internal standard with a concentration of 1 μg mL^−1 was added, then 140 μL of a 1% aqueous solution of formic acid was added and homogenized. Brain samples were ground in a Precellys Evolution homogenizer using 2 mL tubes with ceramic balls at room temperature at a speed of 4500 vibrations min^−1 for 2 cycles of 90 s. After that, 400 μL of chloroform was added. The sample was shaken and centrifuged at 10,621 g for 2 min. The aqueous layer of the liquid was taken and 400 μL of chloroform was added. The sample was shaken and centrifuged at 10,621 g for 2 min. The supernatant was taken for analysis.
Plasma. A total of 10 μL of an aqueous solution of an internal standard with a concentration of 1 mg mL^−1 was added to 50 μL of plasma. A total of10 μL of formic acid and 150 μL of a 0.2% solution of formic acid in methanol was added to the solution. A total of 780 μL of deionized water was added to the resulting solution. The solution was centrifuged at 10,621 g for 2 min. The supernatant was collected and analyzed.
Analyses were performed by a Shimadzu 20 (Shimadzu, Kyoto, Japan) system consisting of HPLC coupled to triple quadrupole mass spectrometer Shimadzu 8040 (Shimadzu, Japan). The chromatographic separation was performed on Discovery C18 column 3 × 150 mm, 5 μm in a gradient mode with mobile phase components A (0.01M ammonium acetate in water) and B (acetonitrile). The gradient cycle was performed in the following way: 0–6 min 5–40% B, 6.01–10 min 40–95%, 10.01–15 min, isocratic elution with 100% B, and then returned to the initial condition. The column temperature was 60 °C. The sample injection volume was 20 μL. The autosampler temperature was 8 °C.
The electrospray ionization (ESI) source was set in positive ionization mode. Multiple reaction monitoring was used to perform mass spectrometric quantification. MS conditions: interface voltage 3,500 V ([…]), nebulizer gas (nitrogen) flow 2.5 l min^−1, drying gas (nitrogen) flow 15 L min^−1, CID gas pressure 230 kPa, DL temperature 200 °C, and heat block temperature 500 °C. High-purity argon was used as collision gas. The precursor and product ions (m/z) of target analytes were 327.10 and 174.10 for compound 1 and 236.10 and 154.15 for internal standard; collision energy was −20 V for both compounds.

rats with MCAO [2] = assay: Open field test (OFT) after MCAO; format: in vivo, Wistar rats
Experimental: (§1) A MCAO animal model was used to characterize the effects of compound 1 on the development and resolution of stroke. At the baseline, we performed the MRI and hole-board test before MCAO surgery. Once animals recovered after the surgery, we stratified them based on their background psycho-emotional status and performed a control MRI to access whether the occlusion was sufficient or not. […] From 24 h to day 7, the neurological status was assessed daily according to the neurological scale (mNSS). By the end of day 7, animals underwent MRI. In addition, MRI was performed on days 14 and 28 (Shceme 3)The hole-board test was repeated on days 10 and 24. The degree of motor function impairment, the deficit of exploratory behavior, and the recovery process were assessed in the beam walking test (BWT), which was performed twice on days 12 and 14. An open field test was carried out on days 16 and 26.
(§2) In the first experimental series, the following test systems were used: HBT (OpenScience, Russia), OFT (OpenScience), and LDT (OpenScience). The design for the second experimental series was as follows. All rat behavioral changes were evaluated during the four weeks after stroke simulation. […] General neurological disorders were assessed using the modified neurological severity score (mNSS). Motor and cognitive impairment were evaluated using the following functional tests: BWT (OpenScience), HBT (OpenScience), and OFT (OpenScience). […] In this test, motor dysfunction in all four limbs was evaluated; specifically, the number of steps, errors, and slides were counted. The overall score was calculated using the following formula: score = errors + 0.5 × slides × 100/total number of steps [47]. […]
(§3) The HBT was performed on postoperative days 10 and 24. In this test, the following parameters were assessed: orientational and motor activity (horizontal activity, arbitrary units: number of crossings; vertical activity, arbitrary units: number of head dips), anxiety level (immobility and grooming time and number of grooming and immobility events), and the number of central sector crossings. […]

[3] = Reported BBB permeability; details: compound 1, no reference given; own data
Text: Table 5 Predicted permeability of ampakines in silico and in the blood–brain barrier (BBB). | column: Literature Report of BBB Permeability

rats with MCAO [4] = assay: Hole-board test (HBT) after MCAO; format: in vivo, Wistar rats
Experimental: as §1, §2, §3

[5] = tested on: patients with cerebral ischemia-induced short-term memory/cognitive deterioration; details: after piracetam; cited from earlier work

Row | Structure (SMILES) | Increase of BBB permeability after MCAO ([1]; 24 h after MCAO vs intact animals) [fold] | Concentration in the brain ([1]; intact animals) [μg g^–1] | Cplasma/Ccortex ([1]; intact animals) | Cplasma/Cstriatum ([1]; intact animals) | concentration at 60 min ([1]; brain, intravenous, intact animals, read-out: Concentration in the brain) [ng/g] | concentration at 60 min ([1]; brain, intravenous, rats with hemispheric stroke (24 h after MCAO), read-out: Concentration in the brain) [ng/g] | concentration at 60 min ([1]; cortex, iv, intact animals, 60 min after intravenous administration, read-out: Ccortex) [ng/g] | concentration at 60 min ([1]; plasma, intravenous, rats 24 h after MCAO, read-out: Cplasma) [ng/mL] | concentration at 60 min ([1]; plasma, iv, intact animals, 60 min after intravenous administration, read-out: Cplasma) [ng/mL] | concentration at 60 min ([1]; striatum, iv, intact animals, 60 min after intravenous administration, read-out: Cstriatum) [ng/g] | Cplasma/Ccortex ([1]; rats 24 h after MCAO) | Cplasma/Cstriatum ([1]; rats 24 h after MCAO) | Locomotor activity (OFT) (rats with MCAO [2]) | Immobility time (OFT) compared to the saline and piracetam groups (rats with MCAO [2]; day 16) | Number of crossed areas (OFT) (rats with MCAO [2]; day 16) | BBB Permeability (column Literature Report of BBB Permeability) [3] | Orientational activity (HBT) (rats with MCAO [4]; day 10) | Freezing time (HBT) (rats with MCAO [4]; days 10 and 24) | Total locomotor activity (HBT) (rats with MCAO [4]; days 10 and 24) | Patients who improved their memory and cognitive functions [5]
1 | O=C(CN1CC(c2ccccc2)CC1=O)NCCS(=O)(=O)[O-].[K+] (centres unmarked) [Compound 1, potassium 2-[2-(2-oxo-4-phenylpyrrolidin-1-yl)acetamido]ethane-1-sulfonate] | ~10 | 0.3 | 630 and 630.9 ± 98.6 | 650 and 651.2 ± 52.0 | 300 | 2600 | 255000 ± 78200 | 13800 ± 3600 | 16100 ± 5800 | 247000 ± 42600 | 37.9 ± 6.0 | 89.7 ± 9.4 | higher | lower | statistically significant increase | Low | escalation | decreased | significantly increased | –
2 | NC(=O)CN1CCCC1=O [Piracetam, reference compound] | – | – | – | – | – | – | – | – | – | – | – | – | – | – | – | – | – | – | – | around 25%
